Laboratory results reported in US4148785A, “Analgesic polypeptide” (American Home Products Corporation, priority 1978, dated 1979).
Where a SMILES comes first, the peptide text is derived from it. [ ]: non-standard residue; d: D form.

Columns and labels:
[1] = intracerebroventricular; cited from earlier work
rat = rat tail flick test (method of D-Amour and Smith), analgesic activity; type: in vivo
Text: The representative polypeptide of this invention Tyr--D--Ala--Gly--Phe--D--Val--NH2, gave the following results in the reference standard rat tail flick test: […]

opiate receptor = conditions: brain homogenates; cited from earlier work
guinea pig ileum = conditions: cited from earlier work
mouse vas deferens = conditions: cited from earlier work
rats = conditions: injection in the brain ventricle in rats; cited from earlier work

Question: Which “activity when administered intracerebroventricularly” value [1] does the source give for Tyr--D--Ala--Gly--Phe--D--Leu here?
Answer: activity

Question: What does the source list for `CC(C)[C@@H](NC(=O)[C@H](Cc1ccccc1)NC(=O)CNC(=O)[C@@H](C)NC(=O)[C@@H](N)Cc1ccc(O)cc1)C(N)=O` [Tyr--D--Ala--Gly--Phe--D--Val--NH2, L-tyrosyl-D-alanylglycyl-L-phenylalanyl-D-valine amide] (H-Y[dA]GF[dV]-NH2)?
Answer: No. showing analgesia/No. tested (rat; intravenous 1.0 milligram/kilogram, 15 minutes after administration): 2/6; No. showing analgesia/No. tested (rat; intravenous 1.0 milligram/kilogram, 30 minutes after administration): 1/6; No. showing analgesia/No. tested (rat; intravenous 1.0 milligram/kilogram, 60 minutes after administration): 0/6; No. showing analgesia/No. tested (rat; intravenous 2.5 milligram/kilogram, 15 minutes after administration): 5/6; No. showing analgesia/No. tested (rat; intravenous 2.5 milligram/kilogram, 30 minutes after administration): 3/5; No. showing analgesia/No. tested (rat; intravenous 2.5 milligram/kilogram, 60 minutes after administration): 3/5; No. showing analgesia/No. tested (rat; intravenous 5.0 milligram/kilogram, 15 minutes after administration): 6/6; No. showing analgesia/No. tested (rat; intravenous 5.0 milligram/kilogram, 30 minutes after administration): 5/6; No. showing analgesia/No. tested (rat; intravenous 5.0 milligram/kilogram, 60 minutes after administration): 0/5; No. showing analgesia/No. tested (rat; intravenous .25 milligram/kilogram, 15 minutes after administration): 1/6; No. showing analgesia/No. tested (rat; intravenous .25 milligram/kilogram, 30 minutes after administration): 0/6; No. showing analgesia/No. tested (rat; intravenous .25 milligram/kilogram, 60 minutes after administration): 1/6; No. showing analgesia/No. tested (rat; intravenous .5 milligram/kilogram, 15 minutes after administration): 4/6; No. showing analgesia/No. tested (rat; intravenous .5 milligram/kilogram, 30 minutes after administration): 4/6; No. showing analgesia/No. tested (rat; intravenous .5 milligram/kilogram, 60 minutes after administration): 1/6; No. showing analgesia/No. tested (rat; subcutaneous 5.0 milligram/kilogram, 30 minutes after administration): 2/6; No. showing analgesia/No. tested (rat; subcutaneous 5.0 milligram/kilogram, 60 minutes after administration): 1/6; No. showing analgesia/No. tested (rat; subcutaneous 5.0 milligram/kilogram, 90 minutes after administration): 0/6; No. showing analgesia/No. tested (rat; subcutaneous 5.0 milligram/kilogram, 120 minutes after administration): 0/6; No. showing analgesia/No. tested (rat; subcutaneous 20.0 milligram/kilogram, 30 minutes after administration): 6/6; No. showing analgesia/No. tested (rat; subcutaneous 20.0 milligram/kilogram, 60 minutes after administration): 3/6; No. showing analgesia/No. tested (rat; subcutaneous 20.0 milligram/kilogram, 90 minutes after administration): 3/6; No. showing analgesia/No. tested (rat; subcutaneous 20.0 milligram/kilogram, 120 minutes after administration): 2/6

Question: For “H--Tyr--Gly--Gly--Phe--Leu--OH [leucine-enkephalin]”, which “inhibition of stereospecific receptor binding of 3H-naloxone” value (opiate receptor) is on record?
Answer: inhibit the sterospecific receptor binding

Question: What about the “block of electrically evoked contractions” value (shortened to “block”) (guinea pig ileum) of the same compound?
Answer: block electrically evoked contractions

Question: And the “block” value (mouse vas deferens)?
Answer: block electrically evoked contractions

Question: What about the analgesia (rats) of the same compound?
Answer: profound analgesia that is fully reversible by naloxone

Question: Which “inhibition of stereospecific receptor binding of 3H-naloxone” value (opiate receptor) does the source give for “H--Tyr--Gly--Gly--Phe--Met--OH [methionine-enkephalin]” here?
Answer: inhibit the sterospecific receptor binding

Question: What about the “block” value (guinea pig ileum) of the same compound?
Answer: block electrically evoked contractions

Question: And the “block” value (mouse vas deferens)?
Answer: block electrically evoked contractions

Question: What about the analgesia (rats) of the same compound?
Answer: profound analgesia that is fully reversible by naloxone
